Laboratory results from patent US5750141A, “Administration of vaso-active agent and therapeutic agent” (The University of Queensland, priority 1993, dated 1998).
Like-named read-outs stand apart in the source and are kept apart here.

Columns and labels:
[1] = postmortem conditions; cited from earlier work
[2] = nitroglycerine; cited from earlier work
[3] = for Change in salicylic acid clearance from solutions applied to the dermis: FIG. 1
Procedure: In vivo dermal penetration and local tissue uptake studies: The rats were lightly anaesthetised by pentobarbitone (35mg/kg) and their body temperature maintained at 37° C. by placing them on a heating pad. The hair from the 4 cm^2 dorsum area were removed by electric clippers and the epidermis removed by means of an electrodermatome set at a thickness of 80 microns. A dermal absorption cell was adhered to the exposed rat dermis and warmed to 37° C. by means of an external heating device.
Solution of solute spiked with corresponding labelled substance and containing an appropriate concentration of phenylephrine, previously warmed to 37° C., was introduced into the dermal absorption cell and the solution stirred by a glass stirrer driven by an external motor. Samples were removed from the donor cell at predetermined times and placed in preweighed scintillation vials. The glass cell was removed from the rat skin at the end of two hour dermal perfusion study and the application area wiped dry with blotting paper. A blood sample was then taken from the tail vein and the animals sacrificed with overdoes of anaesthetic ether. Immediately thereafter the tissues below the treated site i.e. skin, subcutaneous tissue, fascia, muscle lining or superficial muscle, muscle, fat pad and deep muscle were removed from dissection and placed in preweighed scintillation vials. Similarly, the tissues below the contralateral side were also removed. Tissue and plasma samples were stored at -20° C. prior to analysis. In vivo dermal penetration and local tissue uptake studies (sacrificed animals): The rats were initially anaesthetised by intraperitoneal injection of pentobarbitone (35 mg/kg) and after removing epidermis as described above, were sacrificed by overdose of ether. Dermal perfusion and tissue uptake studies were then conducted in postmortem rats.
The phenylephrine induced reduction in blood flow to dermis was determined by monitoring the dermal clearance of tritiated water in presence of phenylephrine.
Aqueous samples removed from the glass cells in in vivo dermal perfusion studies were directly mixed with 5 ml of liquid scintillation cocktail BCS and counted on liquid scintillation counter. The tissue samples were solubilised with 50 μl of water and 1 ml of tissue solubilizer NCS at 50° C. for 6-8 hrs.

[4] = assay type: in vivo, rat (male Wistar)
[5] = parameters: species or system rat (male Wistar)
Procedure: The following experiment was designed to determine the effect of changes in tissue blood flow (perfusion) on the transdermal absorption and subsequent tissue distribution of 3H-water.
Hindlimb perfusions: Briefly, rats (malc Wistar 280-340 g) were anaesthetised with sodium pentobarbitone 60 mg/ig i.p., the abdomen opened and the right femoral artery cannulated (PESO) via the aorta. A second cannula (PE205) was placed in the dorsal vena cava, and the hindlimb perfused in a humidicrib at 37° C. with oxygenated (95%O2 /5%CO2) Krebs Heinseleit Ringer (mM: NaCl 118, KCl 4.74, KH2 PO4 1.18, MgSO4.7H2 O 0 1.18 CaCl2.2H2 O 2.54, NaHCO3 25, Glucose 11.1;pH 7.4, 37° C.), containing 4% bovine serum albumin (Fraction V, Sigma). Once the perfusions were established rats were sacrificed by creating a pneumothorax and turned over so that cells could be attached to the outer thigh of the perfused limb. The pressure of the inflowing perfusate was continuously monitored, mean pressures were in the order of 30 and 40 mmHg at 4 and 8ml/min respectively. The perfused preparation is stable for up to 2 hrs, as validated by testing inflowing and outflowing perfusate samples for pH, dissolved oxygen concentrations, together with various enzyme and ion concentrations. The perfusion flow rates were controlled by a graduated peristaltic pump, and were measured at the beginning and end of each experiment.
Glass diffusion cells (8 cm high, 1.8 cm internal diameter, 2.54 cm^2 skin application area), were fixed to the skin on the outer thigh of the perfused hindlimb with adhesive. The application area on the hindlimb was first depilated with commercial Nair™ hair-removal cream and the epidermis removed using a dermatome before the perfusion was established. Solutions (2 ml) containing trace amounts of the radiolabelled ^3 H-water (Sigma Chemical Co, Australia), in phosphate buffered saline (pH 7.4, 37° C.) were introduced into the cell at time 0. Absorption studies were conducted for 90 minutes, after which time the cell contents were drawn out with a pipette, the cell removed and the tissues from beneath the position of the cell sequentially dissected into preweighed vials for weight determination, solubilisation and liquid scintillation counting.

[6] = assay type: in vivo, rat (male Wistar); remark: listed apart in the source
Procedure: Male Wistar rats (348±20 g) were anaesthetised i.p. with sodium pentobarbitone (60 mg/kg) and laid abdomen down on a heating pad (37° C.) with the left hindleg extending over the edge of the pad. The left hind foot was cleaned with cotton wool swabs soaked in a dilute solution of ethanol then dried. The foot was then immersed, to a standard position marked on the ankle joint, in 2 ml of vehicle solution (30% propylene glycol/30% ethanol/40% water) containing ^3 H-water (Sigma, Australia) with (n=3) or without (n=3) 2% GTN (David Bull Laboratories Pty Ltd. Melbourne, Australia). Solutions were left in contact with the foot for 2 hours with 10 μl samples taken at time zero and at the end of the absorption period. After 2 hrs a blood sample was taken from the tail vein and animals were sacrificed by cervical dislocation whilst still anaesthetised. The rat paws were cleaned as previously to remove any excess radiolabelled solute from the surface. Skin from the upper part of the foot, the foot pad and foot muscles were dissected from each treated and contralateral paw, placed into preweighed scintillation vials, solubilised with NCS (Amersham, Australia) and counted for radioactivity, along with the 10 μl solution samples, following the addition of the appropriate scintillation cocktail. Statistical analysis was performed using a Student unpaired t-test, with significance taken at the P<0.05 level.

[7] = reductions in blood flow; cited from earlier work
[8] = 30° C.; Michaels et al.; cited from earlier work
[9] = topical ointment; cited from earlier work
[10] = 2% GTN vs vehicle, 2 hours, FIG. 5

SMILES: CN(Cc1cnc2nc(N)nc(N)c2n1)c1ccc(C(=O)N[C@@H](CCC(=O)O)C(=O)O)cc1 [methotrexate]
- Disappearance from dermal and subcutaneous sites [1]: reduced

SMILES: O=[N+]([O-])OCC(CO[N+](=O)[O-])O[N+](=O)[O-] [nitroglycerine]
- Water solubility [2]: 1300 µg/mL

SMILES: O=C(O)c1ccccc1O [salicylic acid]
- Change in salicylic acid clearance from solutions applied to the dermis ([3]; increasing phenylephrine concentration up to 0.05%): decreased up to phenylephrine concentration of 0.05%
- Change in salicylic acid clearance from solutions applied to the dermis ([3]; phenylephrine 0.1%): no further decrease
- Plasma levels and levels in contralateral tissues ([4]; PE concentration of 0.1%, FIG. 2a-h): sudden increase
- Concentration in underlying tissues (fraction of initial concentration) ([4]; PE concentrations above 0.01%, FIG. 2a-g): approach a constant value
- Concentration in underlying tissues (fraction of initial concentration) ([4]; PE up to 0.01%, underlying tissues except for fat pad, FIG. 2a-g): increase with increase in concentration of PE up to 0.01%
- Systemic salicylic acid blood levels ([4]; increasing phenylephrine concentration, FIG. 2h): gradual decline
- Concentration in contralateral tissues ([4]; increasing phenylephrine concentrations, FIG. 2a-g): decreased with increasing phenylephrine concentrations
- Concentration in deep muscle ([4]; phenylephrine 0.01%): maximum concentrations
- Concentration in deep muscle ([4]; phenylephrine above 0.01%): decreases

SMILES: O [Water]
- Dermal clearance (Mean ± S.D.) ([3]; Control (no phenylephrine), anaesthetised rats, 37° C., two hour study): 1.10 ± 0.24 mL/h
- Dermal clearance (Mean ± S.D.) ([3]; Phenylephrine (1:5000)): 0.40 ± 0.02 mL/h
- Dermal clearance (Mean ± S.D.) ([3]; Phenylephrine (1:20000)): 0.53 ± 0.05 mL/h
- Dermal clearance (Mean ± S.D.) ([3]; Sacrificed animals): 0.36 ± 0.02 mL/h
- Concentration in plasma and contralateral tissues ([4]; in the presence of phenylephrine): decreased
- Concentration in tissues below the application area ([4]; in the presence of phenylephrine, FIGS. 3 & 4): increased
- Dependence of tissue concentrations on perfusion flow rate ([5]; 4 vs 8 ml/min): great dependence on perfusion flow rate
- Tissue concentration of water in dermis (2 mm) and superficial muscle layer (5 mm) ([5]; 8 ml/min vs 4 ml/min, p<0.05): statistically lower
- Tissue concentration of water in the deeper muscle layers ([5]; lower flow rate (4 ml/min)): higher concentrations
- Increase in clearance from the dermal cell ([5]; perfusion flow rate raised from 4 ml/min to 8 ml/min, p<0.05, 90 minutes, pH 7.4, 37° C.): 31%
- Concentration of water in upper skin and muscle tissues of the contralateral limb ([6]; 2% GTN vs vehicle): significant increase
- Concentration in the outer skin or foot pad of the rat paw [6, 10]: no significant change
- Concentration of water in the deeper foot muscles [6, 10]: highly significant increase
- Plasma concentration of water ([6]; 2% GTN vs vehicle, 2 hours, P=0.046, FIG. 5): significant increase
- Underlying tissue concentration of topically coadministered 3H-water ([6]; topical GTN, anaesthetised animals): significantly increase
- Absorption from dermal and subcutaneous sites [7]: significant reductions in absorption

SMILES: CN[C@@H](C)[C@H](O)c1ccccc1 [ephedrine]
- Maximum flux through skin [8]: 250-400 μg/cm^2 per hr

SMILES: CCCCC[C@H](O)/C=C/[C@@H]1[C@H]2C/C(=C/CCCC(=O)O)O[C@H]2C[C@H]1O [Prostaglandin I2 (PGI2)]
- Effectiveness in the treatment of skin ulcers [9]: effective in the treatment of skin ulcers
